In brackets after ≈: the same amount, converted by molar mass.
Columns and labels:
Plasmodium falciparum [1] = assay: Antimalarial activity against multidrug-resistant Plasmodium falciparum K1 infected human erythrocytes assessed by [3H]hypoxanthine uptake; format: functional, organism-based
Mus musculus [2] = assay: Toxicity in Plasmodium berghei N-infected TSW mice (Mus musculus) assessed as toxic deaths before day 5 at 3 mg/kg, perorally administered 3 hrs after infection daily for 4 consecutive days; format: organism-based; parameters: dose 3 mg/kg, route oral; settings: in vivo, po
Plasmodium berghei [3] = assay: Antimalarial activity as reduced parasitaemia at day 4 against Plasmodium berghei N infected TSW mice (Mus musculus) perorally dosed 3 hrs post infection then daily; format: functional; settings: po
Plasmodium berghei [4] = assay: Antimalarial activity as reduced parasitaemia at day 4 against Plasmodium berghei N infected TSW mice (Mus musculus) at 3 mg/kg peroral dose 3 hrs post infection then daily; format: functional; settings: route oral
[5] = (§1) Toxicity in Plasmodium berghei N-infected TSW mice (Mus musculus) assessed as mortality before day 5 at 9 mg/kg, perorally administered 3 hrs after infection daily for 4 consecutive days; format: organism-based; parameters: dose 9 mg/kg, route oral; settings: TSW, in vivo, po, read-out: Activity
Plasmodium berghei [6] = assay: Antimalarial activity as reduced parasitaemia at day 4 against Plasmodium berghei N infected TSW mice (Mus musculus) at 9 mg/kg perorally dosed 3 hrs post infection then daily; format: functional; settings: route oral
Plasmodium falciparum [7] = assay: Antimalarial activity against multidrug-resistant Plasmodium falciparum K1 in human erythrocytes as inhibition of [3H]hypoxanthine uptake; format: functional, organism-based
Mus musculus [8] = assay: as §1; format: organism-based; parameters: dose 9 mg/kg, route oral; settings: in vivo, po, 3 h

In the case of `COC(=O)[C@]12OC[C@]34[C@H]([C@@H](O)[C@@H]1O)[C@@]1(C)CC(=O)C(O[C@@H]5O[C@H](CO)[C@@H](O)[C@H](O)[C@H]5O)=C(C)[C@@H]1C[C@H]3OC(=O)[C@H](OC(C)=O)[C@@H]24` [YADANZIOSIDE I], the IC50 (Plasmodium falciparum [1]) is reported as 22 µg/mL (≈ 34.3 µM).

In the case of `CC1=CC(=O)[C@@H](O)[C@]2(C)[C@H]3[C@@H](O)[C@H](O)[C@]4(CO)OC[C@@]35[C@@H](C[C@@H]12)OC(=O)[C@H](O)[C@]54O` [YADANZIOLIDE A], the IC50 (Plasmodium falciparum [1]) is reported as 0.031 µg/mL (≈ 0.0727 µM).

In the case of `CC1=CC(=O)[C@@H](O)[C@]2(C)[C@H]3[C@@H](O)[C@H](O)[C@]4(C)OC[C@@]35[C@@H](C[C@@H]12)OC(=O)[C@H](O)[C@]54O` [BRUCEINE D], the Activity (Mus musculus [2]) is reported as “Non-toxic”, the IC50 (Plasmodium falciparum [1]) is reported as 0.015 µg/mL (≈ 0.0365 µM) and the ED50 (Plasmodium berghei [3]) is reported as 2.79 mg/kg/day. The ED90 (Plasmodium berghei [3]) was 8.19 mg/kg/day and the inhibition in vivo at 3 mg/kg (Plasmodium berghei [4]) was 50%.

With `COC(=O)[C@@]12OC[C@]34[C@H]([C@@H](O)[C@@H]1O)[C@@]1(C)CC(=O)C(O)=C(C)[C@@H]1C[C@H]3OC(=O)[C@H](OC(C)=O)[C@@H]24` [BRUCEINE B] the mortality at 3 h [5] was 100%, the IC50 (Plasmodium falciparum [1]) was 0.011 µg/mL (≈ 0.0229 µM) and the ED50 (Plasmodium berghei [3]) was 0.9 mg/kg/day. It also gave an ED90 (Plasmodium berghei [3]) of 2.82 mg/kg/day and an inhibition in vivo at 3 mg/kg (Plasmodium berghei [4]) of 95%.

With `COC(=O)[C@@]12OC[C@]34[C@H]([C@@H](O)[C@@H]1O)[C@@]1(C)CC(=O)C(O)=C(C)[C@@H]1C[C@H]3OC(=O)[C@H](OC(=O)/C=C(\C)C(C)C)[C@@H]24` [BRUCEANTIN] the IC50 (Plasmodium falciparum [1]) was 0.0008 µg/mL (≈ 0.00146 µM).

Compound `COC(=O)[C@@]12OC[C@]34[C@H]([C@@H](O)[C@@H]1O)[C@@]1(C)CC(=O)C(O)=C(C)[C@@H]1C[C@H]3OC(=O)[C@H](OC(=O)CC(C)C)[C@@H]24` [BRUCEINE A] has an IC50 (Plasmodium falciparum [1]) of 0.011 µg/mL (≈ 0.0211 µM), an ED50 (Plasmodium berghei [3]) of 3.36 mg/kg/day and an ED90 (Plasmodium berghei [3]) of 26.7 mg/kg/day. For the same compound, the inhibition in vivo at 9 mg/kg (Plasmodium berghei [6]) was 72%.

In the case of `COC(=O)[C@]12OC[C@]34[C@H]([C@@H](O)[C@@H]1O)[C@@]1(C)C=C(O[C@@H]5O[C@H](CO)[C@@H](O)[C@H](O)[C@H]5O)C(=O)[C@@H](C)[C@@H]1C[C@H]3OC(=O)[C@H](OC(C)=O)[C@@H]24` [YADANZIOSIDE F], the IC50 (Plasmodium falciparum [7]) is reported as 5 µg/mL (≈ 7.78 µM).

`COC(=O)[C@]12OC[C@]34[C@H]([C@@H](O)[C@@H]1O)[C@@]1(C)CC(=O)C(O)=C(C)[C@@H]1C[C@H]3OC(=O)[C@H](OC(=O)/C=C(\C)C(C)(C)OC(C)=O)[C@@H]24` [BRUCEANTINOL] showed an IC50 (Plasmodium falciparum [1]) of 0.002 µg/mL (≈ 0.0033 µM).

In the case of `COC(=O)[C@]12OC[C@]34[C@H]([C@@H](O)[C@@H]1O)[C@@]1(C)CC(=O)C(O)=C(C)[C@@H]1C[C@H]3OC(=O)[C@H](OC(=O)/C=C(\C)C(C)(C)O)[C@@H]24` [BRUCEINE C], the Activity (Mus musculus [8]) is reported as “Toxic”, the IC50 (Plasmodium falciparum [1]) is reported as 0.005 µg/mL (≈ 0.00886 µM) and the inhibition in vivo at 3 mg/kg (Plasmodium berghei [4]) is reported as 40%.

With `COC(=O)[C@]12OC[C@]34[C@H]([C@@H](O)[C@@H]1O)[C@@]1(C)CC(=O)C(O)=C(C)[C@@H]1C[C@H]3OC(=O)[C@H](OC(=O)C=C(C)C)[C@@H]24` [BRUSATOL] the IC50 (Plasmodium falciparum [1]) was 0.003 µg/mL (≈ 0.00576 µM), the ED50 (Plasmodium berghei [3]) was 1.27 mg/kg/day and the ED90 (Plasmodium berghei [3]) was 3.03 mg/kg/day. For the same compound, the inhibition in vivo at 3 mg/kg (Plasmodium berghei [4]) was 98%.

`COC(=O)[C@]12OC[C@@]34[C@@H](CC5=C(C)C(=O)C(O)=C[C@]5(C)[C@H]3[C@@H](O)[C@@H]1O)OC(=O)[C@H](OC(=O)CC(C)C)[C@@H]24` [DEHYDROBRUCEINE A] gave an IC50 (Plasmodium falciparum [1]) of 0.046 µg/mL (≈ 0.0884 µM).

From ChEMBL document CHEMBL1150703, “Plants as sources of antimalarial drugs, Part 4: Activity of Brucea javanica fruits against chloroquine-resistant Plasmodium falciparum in vitro and against Plasmodium berghei in vivo” (J Nat Prod, 1987)
